From a melting point compilation (Tetko et al.; mined from patent text by program, amines drawn as free bases though some values may be those of a salt)

| SMILES | melting point |
| --- | --- |
| NC(=O)N1Cc2c(-c3ccc(F)cc3)ncn2-c2ccccc21 | 222 to 223 °C |
| CC(C)c1nn(-c2ccc(C#N)cn2)cc1CCCO | 105 to 106 °C |
| COc1cc(C=CC=C2SC(=O)NC2=O)ccc1OC(C)C | 230 to 231 °C |
| CCCCS(=O)(=O)C(c1ccc(Cl)cc1)c1ccc(Cl)cc1 | 104 to 106 °C |
| Cc1cccc(Cl)c1NC(=O)Nc1cc(NC(C)C)ncn1 | 233 °C |
| OCc1ccc2c(c1)Nc1nccnc1S2 | 187 to 189 °C |
| C#CCC(Cc1cccnc1)(C(=O)O)S(=O)(=O)c1ccc(OC)cc1 (stereo not drawn) | 119 to 121 °C |
| O=C(O)c1cc2ccnc(N(Cc3ccccc3)Cc3ccccc3)c2[nH]1 | 114 to 120 °C |
| N#CCCNC(=O)c1cncc(-c2cccc3nn(Cc4cccc(C(F)(F)F)c4)cc23)c1 | 192 to 193 °C |
| Oc1ccc2c(c1)COc1c-2cc2ccc(O)cc2c1-c1ccc(Cl)cc1 | 239 to 242 °C |
| CCOC(Cc1ccc(OCc2nc(C(C)(C)C)oc2C)c(C)c1)C(=O)O (stereo not drawn) | 95 to 97 °C |
| O=C(CNC(=O)c1cccc(Cl)c1)c1ccsc1 | 137 to 140 °C |
| COC(=O)Cc1cc2c(cc1CC1NCCc3cc(OC)c(OC)cc31)OCO2 (stereo not drawn) | 99 to 101 °C |
| CCN(c1nc(C)cc(C)n1)c1c(O)cc(OC)cc1Br | 157 to 160 °C |
| COCCNS(=O)(=O)c1ccc(C(CC2CCCC2)C(=O)Nc2nc3ccc(OC)nc3s2)cc1 (stereo not drawn) | 209 to 211 °C |
| CNC(=S)n1nc(N=CN(C)C)nc1N | 184 to 188 °C |
| COc1ccc(C(C)=O)cc1C(C)=CC(=O)O | 194 °C |
| CC1Cc2c(-n3nc(C#N)c(=O)[nH]c3=O)ccc(Cl)c2O1 (stereo not drawn) | 244 to 245 °C |
| CCCCc1ncc([N+](=O)[O-])c(O)n1 | 67 to 69 °C |
| Nc1nnc(-c2ccc(CN3CCCCCC3)s2)o1 | 232 to 234 °C |
| CNc1nc(Cl)cc(Cl)n1 | 157 to 158 °C |
| O=S(=O)(CCO)Cc1ccc(CS(=O)(=O)CCO)cc1 | 210 to 212 °C |
| O=C(NC1CCCCC1)N1CCc2cc(S(=O)(=O)N3CC(c4ccccc4)NC3=O)ccc21 (stereo not drawn) | 273 to 275 °C |
| CNC(=O)Oc1c(OC)c(OC)c(OC(=O)NC)c2ccccc12 | 228 to 229 °C |
| CCCOc1ccc(C=CCCCCC(=O)O)cc1 | 52 to 53 °C |
| C=CC1CCC2(C)C(CCC3C4CCC(=O)C4(C)CCC32)C1 (stereo not drawn) | 100 to 102 °C |

| SMILES | melting point |
| --- | --- |
| N#CC(=Cc1ccc(Cl)cc1Cl)n1cncn1 | 156 to 160 °C |
| O=c1c([N+](=O)[O-])c(Cl)nc2sc(CCC3CCCCC3)nn12 | 136 to 137 °C |
| O=C(O)CCCC(=O)N1CCN(c2cc3c(cc2F)c(=O)c(C(=O)O)c2sccn23)CC1 | 276 to 278 °C |
| O=S(=O)(Nc1ccc(Cl)cc1C=NOCc1ccc(C(F)(F)F)cc1C(F)(F)F)C(F)(F)F | 65 to 67 °C |
| CCOCC(O)COc1ccc(NC(=O)CCSC)cc1 (stereo not drawn) | 79 to 81 °C |
| CC12CC(=O)C3C(CCC4CC5OC5CC43C)C1CCC2C#N (stereo not drawn) | 206 to 208 °C |
| O=S(c1ccccc1)c1ncc(Cl)cn1 (stereo not drawn) | 115 °C |
| COc1ccccc1C(=O)NCCc1ccc(CC(=O)O)cc1 | 154 to 155 °C |
| Cc1cc(C2(c3ccc(O)cc3)c3ccccc3-c3ccccc32)cc(C)c1O | 90 to 105 °C |
| CCCCC1(SCC)CCC2C3CCC4=CC(=O)C=CC4(C)C3(F)C(O)CC21C (stereo not drawn) | 185 to 187 °C |
| Cc1cc(NCCNCC(O)COc2ccccc2)n2ncnc2n1 (stereo not drawn) | 126 to 127 °C |
| Cc1oc2cc(C=O)ccc2c1C | 73 to 74 °C |
| C/C(=C(\C#N)C(N)=S)N1CCC(O)CC1 | 160 to 163 °C |
| COCc1c(-c2ccncc2)[nH]c(-c2ccncc2)c1C(C)=O | 154 to 156 °C |
| CCNc1ncn(-c2ccccc2C)c(=O)n1 | 208 to 210 °C |
| COc1ccc(C(=O)c2c(N)sc3c2CCN(C(=O)c2ccc(Cl)cc2)C3)cc1OC | 138 to 140 °C |
| COC(=O)c1nc(Cl)cc(N)c1OC | 78 to 79 °C |
| CCCc1nc(C(C)(C)O)c(C(=O)OCC)n1Cc1ccc(-c2ccccc2C(=O)OC(C)(C)C)cc1 | 90 to 91 °C |
| Cc1cccc(-c2nc(CCOc3ccc(/C=C/C=O)cc3)c(C)o2)c1 | 110 to 111 °C |
| CCOC(=O)C1(C)C(=O)Nc2cc(NC(=O)c3ccncc3)c([N+](=O)[O-])cc21 (stereo not drawn) | 217 to 219 °C |
| CCOC(=O)c1c2n(c3c(Br)c(N4CCN(C)CC4)c(F)cc3c1=O)C(C)S2 (stereo not drawn) | 189 to 190 °C |
| O=C1Nc2ccccc2C(c2ccccc2)N1CCO (stereo not drawn) | 141 °C |
| Cc1ccc(S(=O)(=O)N2CCNC2=Nc2ccccc2)cc1 | 174 to 177 °C |
| COc1c(OC(C)=O)ccc2cc[nH]c12 | 241 to 244 °C |
| CN1CSC(=Cc2ccc(O)c(C(C)(C)C)c2)C1=O | > 230 °C |
| CCC(C(O)c1ccc(Cl)cc1)n1ncn(-c2ccc(N3CCN(c4nc5ccccc5o4)CC3)cc2)c1=O (stereo not drawn) | 221 °C |

| SMILES | melting point |
| --- | --- |
| CCCCCCCCCCCCCCCCCCNC(=O)c1ccccc1I | 94 to 96 °C |
| CCOCCOc1ccc(-c2ccc3c(c2)C=C(C(=O)Nc2ccc(CN(C)C4CCOCC4)cc2)CCS3(=O)=O)cc1 | 215 to 217 °C |
| COc1ccc(-c2noc3c2CCC(C(=O)O)CC3)cc1 (stereo not drawn) | 147 to 148 °C |
| Cc1cc(NC(=O)c2cnccn2)nc(C)c1[N+](=O)[O-] | 158 °C |
| COc1ccc(OC)c2c1CC(C(=O)O)CC2=O (stereo not drawn) | 199 to 201 °C |
| Cc1ccc(=O)[nH]c1C | 202 to 207 °C |
| COc1ccc(Nc2nc(C)ncc2S(=O)(=O)c2ccc(OCc3ccccc3)cc2)c(C)n1 | 160 to 165 °C |
| O=C1SCc2c1cccc2[N+](=O)[O-] | 128 to 133 °C |
| C=CCCCN(C(=O)OC(C)(C)C)c1cc(OCc2ccccc2)c2ccccc2c1I | 69 to 71 °C |
| COCCN(C)C1CCN(c2ccc(N)cc2C#N)CC1 | 88 °C |
| Cn1ncc(C(=O)N2CCC2)c1C(=O)Nc1ccn2nc(-c3cccc(F)n3)nc2c1 | 264 °C |
| CS(=O)(=O)ON=C(C#N)C(N)=O | 136 to 142 °C |
| COc1ccc2c(c1)NC(=O)N(c1ccc(Cl)cc1)S2(=O)=O | 229 to 230 °C |
| COc1ccccc1C1(Cl)C(=O)Nc2ccc(Cl)cc21 (stereo not drawn) | 220 to 224 °C |
| CN1C(=O)CN=C(c2ccccc2F)c2cc(NC(=O)N(CCOC(C)(C)C)Cc3ccccc3)ccc21 | 82 to 86 °C |
| Nc1cccc(-c2ccc(C3CCN(Cc4ccc5c(c4)OCO5)CC3)cc2)n1 | 150 to 165 °C |
| Nc1c(Cl)cc(C(O)CNCCCCCCOCCc2ccccc2)cc1Cl (stereo not drawn) | 60 to 63 °C |
| CCCCC(=O)NC(C(=O)OCC)=C(N)SCCOC(C)=O | 84 °C |
| CC1CCC(=NNc2ccc([N+](=O)[O-])cc2[N+](=O)[O-])c2ncc(C(=O)O)c(=O)n21 (stereo not drawn) | 257 to 258 °C |
| CCNC(=O)c1cccc2[nH]n(C)c(=O)c12 | 192 to 194 °C |
| O=C(CCCl)N(c1ccccc1)C1CCCc2ccccc21 (stereo not drawn) | 78 to 81 °C |
| Nc1c(F)c(N2CCC(n3cc(-c4ccccc4)nn3)C2)c(F)c2c1c(=O)c(C(=O)O)cn2C1CC1 (stereo not drawn) | 265 °C |
| Cc1cccc(C(C)C)c1NC(=O)Nc1c(-c2ccccc2F)c2cc(Cl)ccc2oc1=O | 217 to 218 °C |
| CC(C)c1ccc2c(c1)OC(C(F)(F)F)C(C(=O)O)=C2 (stereo not drawn) | 158 to 160 °C |
| Nc1cc(Br)ccc1-c1ccc(Br)cc1N | 118 to 119 °C |
| COC(=O)CCc1cc(-n2nc3ccc(Br)cc3n2)c(O)c(C(C)(C)C)c1 | 116 to 118 °C |

| SMILES | melting point |
| --- | --- |
| CN1c2ccccc2Sc2c(C=O)cccc21 | 103 °C |
| O=C(NC(=O)c1ccccc1Cl)C(=C1NCCCS1)[N+](=O)[O-] | 130 to 131 °C |
| Nc1cc(NC(=O)c2cc3cc(C(F)(F)F)ccc3n2Cc2cccc(F)c2)ccn1 | 225 to 226 °C |
| CC(=O)Oc1ccc(C(=O)O)cc1C | 169 to 171 °C |
| CC(=Cc1ccccc1)c1ccc2c(c1)C(C)(C)CCS2 | 81 to 83 °C |
| CCNC(=O)c1ccc(N2CCN(Cc3cc4c(c(OCC)c3)OC(C)C(=O)N4)CC2)c(Cl)c1 (stereo not drawn) | 187 to 199 °C |
| Nc1cc(Br)c([N+](=O)[O-])cc1Br | 178 °C |
| CCOC(=O)c1[nH]c(C)c(-c2ccc(F)cc2)c1C | 174 to 175 °C |
| CS(=O)(=O)NNC(=O)c1nc(CS(=O)(=O)c2ccc(Cl)cc2)no1 | 198 to 202 °C |
| O=C(Cl)Cc1ccccc1NS(=O)(=O)C(F)(F)F | 94 to 95 °C |
| COCOc1ccccc1-c1ccc(-c2ccc(C(=O)O)cc2)cc1-c1ccc2c(c1)C(C)(C)CCC2(C)C | 132 to 135 °C |
| C=C(CN1CCOCC1)C(=O)O | 121 to 125 °C |
| CCCCOC(=O)c1ccc(N2CCN(CC=Cc3ccc(Cl)cc3)CC2)cc1 | 115 to 117 °C |
| CCCCc1nc2c(N)nc3ccccc3c2n1CCCCCS(C)=O (stereo not drawn) | 119 to 121 °C |
| CCOC(=O)c1cnc(-c2cc([N+](=O)[O-])ccc2OCC)[nH]c1=O | 222 to 224 °C |
| COc1ccc(Oc2ccc(F)cc2)cc1C#CC(C)N(O)C(N)=O (stereo not drawn) | 141 to 142 °C |
| CC(=O)OC1CC2=CCC3C4CCC(C(C)CCC=C(C)C)C4(C)CCC3C2(C)C(OC(C)=O)C1 (stereo not drawn) | 133 to 134 °C |
| CCCCNc1nc(C)nc2c1nnn2-c1ccc(C(C)C)cc1Br | 149 to 151 °C |
| C=C(CO)[C@H](C(=O)OC(c1ccccc1)c1ccccc1)N1C(=O)[C@@H]2N=C(c3ccccc3)O[C@@H]21 | 100 to 104 °C |
| Cc1ccc2nc(C)c(C3=NNC(=O)CO3)n2c1 | 313 °C |
| Cc1ccc(OCc2c(F)cccc2Cl)c(NC(=N)Nc2ccc(Cl)cc2)n1 | 148 to 149 °C |
| Nc1ccc2nc3n(c2c1)CC(C(=O)OCc1ccccc1)NC3 (stereo not drawn) | 115 to 118 °C |
| CCOc1cc2nc(S(C)(=O)=O)[nH]c2cc1OCC | 182 to 184 °C |
| O=C(C=Cc1ccc(-c2ccc(Cl)cc2)cc1)Nc1ccc(CN2CCCCC2)cc1 | 265 to 270 °C |
| CCOC(=O)c1c(-c2ccccc2Cl)c2cc(Cl)ccc2n(C)c1=O | 139 to 140 °C |
